Experimental data: patent publication US20090118331A1, “Use of Lobeline Epimers in the Treatment of Central Nervous System Diseases, Pathologies, and Drug Abuse” (priority 2007, published 2009)

Key:
[1] = clinical; conditions: human, in vivo
Description: Three consecutive doses of lobeline (either 30, 45 and 45 mg in the first study group, or 60, 60 and 60 mg in the second group) were administered to human volunteers at 0800, 1200 and 1600 over two full inpatient days. The pharmacokinetics of lobeline and epimer were then assessed in each subject. […] A crude index of accumulation (non-steady state) was obtained by dividing the sixth dose trough concentration by that observed for the fifth dose.

[2] = in vivo; conditions: for AUC(0-inf) / AUC(0-t) / Cmax / MRT last / Tmax / Vd / clearance / half-life: rat, in vivo
Description: Here, serial doses of lobeline were administered to male and female rats intravenously, subcutaneously or orally, and the pharmacokinetic profiles of the parent lobeline and its epimer were monitored in plasma.

[3] = Lobeline conversion to epimer in the buffer system used at 37° C. in the VMAT2 uptake study (HPLC); type: physicochemical; conditions: for Lobeline %: VMAT2 uptake buffer, 37° C.

CN1[C@@H](CC(=O)c2ccccc2)CCC[C@H]1C[C@H](O)c1ccccc1 [Lobeline, 2-[6S-(2S-hydroxy-2-phenyl-ethyl)-1-methyl-piperidin-2R-yl]-1-phenyl-ethanone]
time at which geometric mean plasma concentration peaked [1]: 1.26 h | AUC(0-inf) ([2]; female, iv, 2 mg/kg): 134 ng·h/mL | AUC(0-t) ([2]; female, iv, 2 mg/kg): 133 ng·h/mL | Cmax ([2]; female, iv, 2 mg/kg): 106 ng/mL | MRT last ([2]; female, iv, 2 mg/kg): 1.72 h | Tmax ([2]; female, iv, 2 mg/kg): 0.083 h | Vd ([2]; female, iv, 2 mg/kg): 27.2 L/kg | clearance ([2]; female, iv, 2 mg/kg): 0.248 mL/min/kg | half-life ([2]; female, iv, 2 mg/kg): 1.85 h | AUC(0-inf) ([2]; female, po, 20 mg/kg): 64.5 ng·h/mL | AUC(0-t) ([2]; female, po, 20 mg/kg): 62.7 ng·h/mL | Cmax ([2]; female, po, 20 mg/kg): 42.5 ng/mL | MRT last ([2]; female, po, 20 mg/kg): 1.92 h | Tmax ([2]; female, po, 20 mg/kg): 0.5 h | half-life ([2]; female, po, 20 mg/kg): 2.29 h | AUC(0-inf) ([2]; female, sc, 3 mg/kg): 193 ng·h/mL | AUC(0-t) ([2]; female, sc, 3 mg/kg): 191 ng·h/mL | Cmax ([2]; female, sc, 3 mg/kg): 142 ng/mL | MRT last ([2]; female, sc, 3 mg/kg): 1.42 h | Tmax ([2]; female, sc, 3 mg/kg): 0.25 h | half-life ([2]; female, sc, 3 mg/kg): 1.14 h | AUC(0-inf) ([2]; male, iv, 2 mg/kg): 135 ng·h/mL | AUC(0-t) ([2]; male, iv, 2 mg/kg): 134 ng·h/mL | Cmax ([2]; male, iv, 2 mg/kg): 144 ng/mL | MRT last ([2]; male, iv, 2 mg/kg): 1.54 h | Tmax ([2]; male, iv, 2 mg/kg): 0.083 h | Vd ([2]; male, iv, 2 mg/kg): 23.8 L/kg | clearance ([2]; male, iv, 2 mg/kg): 0.247 mL/min/kg | half-life ([2]; male, iv, 2 mg/kg): 1.68 h | AUC(0-inf) ([2]; male, po, 20 mg/kg): 105 ng·h/mL | AUC(0-t) ([2]; male, po, 20 mg/kg): 104 ng·h/mL | Cmax ([2]; male, po, 20 mg/kg): 91.2 ng/mL | MRT last ([2]; male, po, 20 mg/kg): 1.88 h | Tmax ([2]; male, po, 20 mg/kg): 0.5 h | half-life ([2]; male, po, 20 mg/kg): 1.97 h | AUC(0-inf) ([2]; male, sc, 3 mg/kg): 191 ng·h/mL | AUC(0-t) ([2]; male, sc, 3 mg/kg): 190 ng·h/mL | Cmax ([2]; male, sc, 3 mg/kg): 162 ng/mL | MRT last ([2]; male, sc, 3 mg/kg): 1.35 h | Tmax ([2]; male, sc, 3 mg/kg): 0.083 h | half-life ([2]; male, sc, 3 mg/kg): 1.18 h | ratio of lobeline to epimer in plasma (comparison of AUC; x to 1) ([2]; rats, depending on sex and route of administration): 1.5-2 | systemic absorption of lobeline, followed by subsequent epimerization, when given orally ([2]; rats, females compared to males): significantly reduced in females as compared to males | component content of solution ([3]; 37° C. uptake buffer with ATP-Mg2+ cofactor reduced from 2 mM to 0.4 mM, after 2 hours, with impurity): 66% | final component concentration (as a function of the area under the curve) ([3]; VMAT2 uptake buffer (HEPES), 2 hour incubation at 37° C.): 69% | Lobeline % ([3]; T0, sample age 0:01): 98.2% | Lobeline % ([3]; T5, sample age 0:05): 96.7% | Lobeline % ([3]; T10, sample age 0:10): 94.4% | Lobeline % ([3]; T15, sample age 0:15): 91.2% | Lobeline % ([3]; T25, sample age 0:25): 86.5% | Lobeline % ([3]; T30, sample age 0:30): 84.7% | Lobeline % ([3]; T35, sample age 0:35): 83.4% | Lobeline % ([3]; T40, sample age 0:40): 81.8% | Lobeline % ([3]; T45, sample age 0:45): 80.6% | Lobeline % ([3]; T50, sample age 0:50): 79.3% | Lobeline % ([3]; T55, sample age 0:55): 78.5% | Lobeline % ([3]; T60, sample age 1:00): 77.2% | Lobeline % ([3]; T70, sample age 1:10): 75.0% | Lobeline % ([3]; T80, sample age 1:20): 73.1% | Lobeline % ([3]; T90, sample age 1:31): 72.2% | Lobeline % ([3]; T100, sample age 1:40): 71.1% | Lobeline % ([3]; T110, sample age 1:50): 69.6% | Lobeline % ([3]; T120, sample age 2:00): 68.5%
